“Also recorded” adds a separate entry of the source.
What was measured:
[1] = test system: OVCAR8; assay: MTT assay (cytotoxicity), OVCAR8; format: cell-based; conditions: Homo sapiens, OVCAR-8, 72 h, drug concentration causing a 50% decrease in cell population
Method: (§1) The evaluation of cytotoxicity was based on the reduction of MTT dye by viable cells to give purple formazan products, which can be measured spectrophotometrically at 540 nm. One hundred eighty microliters of cancer cells were seeded into 96-well plates at 3,500-4,000 cells/well and incubated at 37° C. overnight before the indicated treatments. After 72 h, 20 μl of MTT solution (3 mg/ml) was added and incubated again for 3 h. After removal of media and solubilization of formazan crystals in 150 μL of DMSO, the absorbance was measured at 570 nm. Percentage of cell growth inhibition was expressed as 1-[(A−B)/(C−B)]×100% (A, B and C were the absorbance values from experimental, blank and control cells, respectively).
(§2) KJA derivatives were tested by the MTT assay against five human cancer cell lines including ovarian cancer cell lines (OVCAR-8, NCI/ADR-RES and SKOV3) and pancreatic cancer cell lines (MIA PaCa-2 and Pac-1). […] It is important to note that the NCI/ADR-RES cell line shares a large number of karyotypic abnormalities with OVCAR-8 but expresses high levels of MDR1 (multidrug resistance protein 1)/P-glycoprotein (see, e.g., Xu, S.; et al., Proceedings of the National Academy of Sciences 2012, 109, 16348-16353), resulting in resistance to multiple anticancer drugs in clinical use, including paclitaxel and doxorubicin.

[2] = test system: NCI/ADR-RES; assay: MTT assay (cytotoxicity), NCI/ADR-RES; format: cell-based, human
Method: as §1, §2

[3] = test system: SKOV3; assay: MTT assay (cytotoxicity), SKOV3; format: cell-based; conditions: Homo sapiens, SK-OV-3, 72 h, drug concentration causing a 50% decrease in cell population
Method: as §1, §2

[4] = test system: MIA PaCa-2; assay: MTT assay (cytotoxicity), MIA PaCa-2; format: cell-based; conditions: Homo sapiens, 72 h, drug concentration causing a 50% decrease in cell population
Method: as §1, §2

[5] = test system: Panc1; assay: MTT assay (cytotoxicity), Panc1; format: cell-based; conditions: Homo sapiens, PANC-1, 72 h, drug concentration causing a 50% decrease in cell population
Method: as §1, §2

[6] = test system: five human cancer cell lines (OVCAR-8, NCI/ADR-RES, SKOV3, MIA PaCa-2, Pac-1); assay: MTT assay, panel of five human cancer cell lines; format: cell-based; conditions: span over the five cell lines, read-out: IC50 against five cancer cell lines
Method: as §1, §2

[7] = test system: NCI/ADR-RES cells; assay: Colony formation assay; format: cell-based, human; conditions: 24 h treatment; low concentration
Method: Colony formation assay. Colony formation assay is an in vitro cell survival assay based on the ability of a single cell to grow into a colony. This technique was also performed to confirm the activity. Briefly, cells were plated in 96-well plates at a density of 300 cells/well and allowed to attach overnight. The next day, the corresponding compounds were added and allowed to incubate for 24 h. After exposure, cells were changed the new media and cultured until colonies were formed (7-10 days). Cells were subsequently washed and stained with a solution of crystal violet for 30 min. After staining, cells were thoroughly washed with water. Colonies were imaged on the inverted fluorescence microscope and were counted using ImageJ software.

[8] = test system: GLIPR1; assay: Western blotting of GLIPR1 protein levels; format: cell-based, human; conditions: NCI/ADR-RES; Western blot
[9] = test system: TXNIP; assay: Western blotting of TXNIP protein levels; format: cell-based, human; conditions: NCI/ADR-RES; Western blot
[10] = test system: NCI/ADR-RES cell line; assay: Bru-seq, changes in transcription; format: cell-based, human
Excerpt: Furthermore, to better understand the potential mechanism of KJA03, we performed Bru-seq to examine the global changes in transcription in NCI/ADR-RES cells.

[11] = test system: tumor; assay: Tumor size, body weight and gross toxicity in treated mice; format: in vivo
Excerpt: Error bars indicate Mean±SEM. and *p<0.05.

Structure (SMILES): Cc1ccc(-c2noc(-c3ccccc3-n3c(-c4ccc(C)cc4)noc3=O)n2)cc1 [KJA03, 3-(P-tolyl)-4-(2-(3-(p-tolyl)-1,2,4-oxadiazol-5-yl)phenyl)-1,2,4-oxadiazol-5(4H)-one]
- IC50 [1]: 140 ± 50 nM
- IC50 ([2]; Homo sapiens, NCI/ADR-RES, MTT, 72 h, drug concentration causing a 50% decrease in cell population): 200 ± 60 nM
- growth of NCI/ADR-RES ([2]; MTT assay after 72 h treatment): inhibited growth
- IC50 [3]: 310 ± 160 nM
- IC50 [4]: 130 nM
- IC50 [5]: 170 nM
- IC50 [6]: 130 to 310 nM
- colony formation in NCI/ADR-RES [7]: significantly inhibited colony formation
- GLIPR1 protein levels [8]: gradually upregulated; also recorded: up-regulated
- TXNIP protein levels [9]: downregulated; also recorded: down-regulated dose-dependently
- expression of LAMC2, TAGLN, CSRP1, SLC4A4, LAMB3, and LPP genes [10]: significantly increase
- Fold-Change ACTC1 ([10]; NCI/ADR-RES, 0.4 uM, 4 hours): 2.238 fold
- Fold-Change APOBEC3 ([10]; NCI/ADR-RES, 0.4 uM, 4 hours): 0.309 fold
- Fold-Change ARMCX1 ([10]; NCI/ADR-RES, 0.4 uM, 4 hours): 0.417 fold
- Fold-Change ATP5I ([10]; NCI/ADR-RES, 0.4 uM, 4 hours): 0.496 fold
- Fold-Change AURKAIP1 ([10]; NCI/ADR-RES, 0.4 uM, 4 hours): 0.413 fold
- Fold-Change BHLHE40 ([10]; NCI/ADR-RES, 0.4 uM, 4 hours): 2.683 fold
- Fold-Change C19orf33 ([10]; NCI/ADR-RES, 0.4 uM, 4 hours): 0.378 fold
- Fold-Change CNO ([10]; NCI/ADR-RES, 0.4 uM, 4 hours): 0.395 fold
- Fold-Change CSRP1 ([10]; NCI/ADR-RES, 0.4 uM, 4 hours): 2.335 fold
- Fold-Change EGR1 ([10]; NCI/ADR-RES, 0.4 uM, 4 hours): 0.198 fold
- Fold-Change EXOSC4 ([10]; NCI/ADR-RES, 0.4 uM, 4 hours): 0.493 fold
- Fold-Change FJX1 ([10]; NCI/ADR-RES, 0.4 uM, 4 hours): 0.469 fold
- Fold-Change GALNT4 ([10]; NCI/ADR-RES, 0.4 uM, 4 hours): 0.356 fold
- Fold-Change GLIPR1 ([10]; NCI/ADR-RES, 0.4 uM, 4 hours): 2.574 fold
- Fold-Change HIST1H2A1 ([10]; NCI/ADR-RES, 0.4 uM, 4 hours): 0.483 fold
- Fold-Change HIST1H2AB ([10]; NCI/ADR-RES, 0.4 uM, 4 hours): 0.362 fold
- Fold-Change HIST1H2AE ([10]; NCI/ADR-RES, 0.4 uM, 4 hours): 0.471 fold
- Fold-Change HIST1H2AG ([10]; NCI/ADR-RES, 0.4 uM, 4 hours): 0.45 fold
- Fold-Change HIST1H2BL ([10]; NCI/ADR-RES, 0.4 uM, 4 hours): 0.441 fold
- Fold-Change HIST1H2BM ([10]; NCI/ADR-RES, 0.4 uM, 4 hours): 0.193 fold
- Fold-Change HIST1H2BN ([10]; NCI/ADR-RES, 0.4 uM, 4 hours): 0.378 fold
- Fold-Change HIST1H3B ([10]; NCI/ADR-RES, 0.4 uM, 4 hours): 0.432 fold
- Fold-Change HIST1H3F ([10]; NCI/ADR-RES, 0.4 uM, 4 hours): 0.322 fold
- Fold-Change HIST1H3G ([10]; NCI/ADR-RES, 0.4 uM, 4 hours): 0.496 fold
- Fold-Change HIST1H3H ([10]; NCI/ADR-RES, 0.4 uM, 4 hours): 0.136 fold
- Fold-Change HIST1H4C ([10]; NCI/ADR-RES, 0.4 uM, 4 hours): 0.338 fold
- Fold-Change HIST1H4H ([10]; NCI/ADR-RES, 0.4 uM, 4 hours): 0.324 fold
- Fold-Change HIST1H4L ([10]; NCI/ADR-RES, 0.4 uM, 4 hours): 0.416 fold
- Fold-Change HIST2H2AC ([10]; NCI/ADR-RES, 0.4 uM, 4 hours): 0.29 fold
- Fold-Change HIST3H2BB ([10]; NCI/ADR-RES, 0.4 uM, 4 hours): 0.446 fold
- Fold-Change HIST4H4 ([10]; NCI/ADR-RES, 0.4 uM, 4 hours): 0.483 fold
- Fold-Change HOXA1 ([10]; NCI/ADR-RES, 0.4 uM, 4 hours): 0.491 fold
- Fold-Change HOXC ([10]; NCI/ADR-RES, 0.4 uM, 4 hours): 0.477 fold
- Fold-Change HOXC4 ([10]; NCI/ADR-RES, 0.4 uM, 4 hours): 0.4 fold
- Fold-Change HSD17B10 ([10]; NCI/ADR-RES, 0.4 uM, 4 hours): 0.415 fold
- Fold-Change ILE ([10]; NCI/ADR-RES, 0.4 uM, 4 hours): 2.485 fold
- Fold-Change INGX ([10]; NCI/ADR-RES, 0.4 uM, 4 hours): 3.089 fold
- Fold-Change LAMB3 ([10]; NCI/ADR-RES, 0.4 uM, 4 hours): 2.089 fold
- Fold-Change LAMC2 ([10]; NCI/ADR-RES, 0.4 uM, 4 hours): 3.217 fold
- Fold-Change LINC00312 ([10]; NCI/ADR-RES, 0.4 uM, 4 hours): 2.165 fold
- Fold-Change LINC00493 ([10]; NCI/ADR-RES, 0.4 uM, 4 hours): 0.452 fold
- Fold-Change LOC100630918 ([10]; NCI/ADR-RES, 0.4 uM, 4 hours): 0.494 fold
- Fold-Change LPP ([10]; NCI/ADR-RES, 0.4 uM, 4 hours): 2.032 fold
- Fold-Change LSMD1 ([10]; NCI/ADR-RES, 0.4 uM, 4 hours): 2.261 fold
- Fold-Change MRPL34 ([10]; NCI/ADR-RES, 0.4 uM, 4 hours): 0.416 fold
- Fold-Change MRPL41 ([10]; NCI/ADR-RES, 0.4 uM, 4 hours): 0.496 fold
- Fold-Change MRPS26 ([10]; NCI/ADR-RES, 0.4 uM, 4 hours): 0.432 fold
- Fold-Change MYADM ([10]; NCI/ADR-RES, 0.4 uM, 4 hours): 2.114 fold
- Fold-Change PA2G4P4 ([10]; NCI/ADR-RES, 0.4 uM, 4 hours): 0.463 fold
- Fold-Change RPL23AP32 ([10]; NCI/ADR-RES, 0.4 uM, 4 hours): 2.141 fold
- Fold-Change RPS19BP1 ([10]; NCI/ADR-RES, 0.4 uM, 4 hours): 0.49 fold
- Fold-Change SCARNA2 ([10]; NCI/ADR-RES, 0.4 uM, 4 hours): 0.401 fold
- Fold-Change SCARNA10 ([10]; NCI/ADR-RES, 0.4 uM, 4 hours): 0.487 fold
- Fold-Change SCARNA17 ([10]; NCI/ADR-RES, 0.4 uM, 4 hours): 0.496 fold
- Fold-Change SDPR ([10]; NCI/ADR-RES, 0.4 uM, 4 hours): 0.497 fold
- Fold-Change SFTA1P ([10]; NCI/ADR-RES, 0.4 uM, 4 hours): 0.387 fold
- Fold-Change SLC4A4 ([10]; NCI/ADR-RES, 0.4 uM, 4 hours): 2.18 fold
- Fold-Change SNRNP25 ([10]; NCI/ADR-RES, 0.4 uM, 4 hours): 0.463 fold
- Fold-Change SSSCA1 ([10]; NCI/ADR-RES, 0.4 uM, 4 hours): 0.386 fold
- Fold-Change TAGLN ([10]; NCI/ADR-RES, 0.4 uM, 4 hours): 2.648 fold
- Fold-Change TCEAL1 ([10]; NCI/ADR-RES, 0.4 uM, 4 hours): 0.455 fold
- Fold-Change TMEM133 ([10]; NCI/ADR-RES, 0.4 uM, 4 hours): 2.846 fold
- Fold-Change TNFAIP3 ([10]; NCI/ADR-RES, 0.4 uM, 4 hours): 2.192 fold
- Fold-Change TPBG ([10]; NCI/ADR-RES, 0.4 uM, 4 hours): 0.374 fold
- Fold-Change TUBB2B ([10]; NCI/ADR-RES, 0.4 uM, 4 hours): 0.461 fold
- Fold-Change TWIST1 ([10]; NCI/ADR-RES, 0.4 uM, 4 hours): 0.319 fold
- Fold-Change TXNIP ([10]; NCI/ADR-RES, 0.4 uM, 4 hours): 0.281 fold
- tumor sizes ([11]; mice, 10 mg/kg, *p<0.05): tumor sizes were reduced
- gross toxicity such as weakness, weight loss or lethargy ([11]; mouse, in vivo): no symptoms of gross toxicity
